According to publication PMC8217813, “Bridging Computational Vaccinology and Vaccine Development Through Systematic Identification, Characterization, and Downselection of Conserved and Variable Circumsporozoite Protein CD4 T Cell Epitopes From Diverse Plasmodium falciparum Strains” (Frontiers in Immunology, 2021):

Tested on: CD4 T cells co-cultured with autologous DCs from PBMCs
Assay type: cell-based, human
Details: for Percentage of donors demonstrating IFN-γ responses, DR1 / Percentage of donors demonstrating IL-2 responses, DR1 / Percentage of donors demonstrating IL-4 responses, DR1 / Percentage of donors demonstrating IL-10 responses, DR1 / Percentage of donors demonstrating TNF-α responses, DR1: DR1 donors N=5; for Percentage of donors demonstrating IFN-γ responses, DR1 / Percentage of donors demonstrating IL-2 responses, DR1 / Percentage of donors demonstrating IL-4 responses, DR1 / Percentage of donors demonstrating IL-10 responses, DR1 / Percentage of donors demonstrating TNF-α responses, DR1 / Percentage of donors demonstrating IFN-γ responses, DR3 / Percentage of donors demonstrating IL-2 responses, DR3 / Percentage of donors demonstrating IL-4 responses, DR3 / Percentage of donors demonstrating IL-10 responses, DR3 / Percentage of donors demonstrating TNF-α responses, DR3 / Percentage of donors demonstrating IFN-γ responses, DR4 / Percentage of donors demonstrating IL-2 responses, DR4 / Percentage of donors demonstrating IL-4 responses, DR4 / Percentage of donors demonstrating IL-10 responses, DR4 / Percentage of donors demonstrating TNF-α responses, DR4 / Percentage of donors demonstrating IFN-γ responses, DR7 / Percentage of donors demonstrating IL-2 responses, DR7 / Percentage of donors demonstrating IL-4 responses, DR7 / Percentage of donors demonstrating IL-10 responses, DR7 / Percentage of donors demonstrating TNF-α responses, DR7 / Percentage of donors demonstrating IFN-γ responses, DR8 / Percentage of donors demonstrating IL-2 responses, DR8 / Percentage of donors demonstrating IL-4 responses, DR8 / Percentage of donors demonstrating IL-10 responses, DR8 / Percentage of donors demonstrating TNF-α responses, DR8 / Percentage of donors demonstrating IFN-γ responses, DR9 / Percentage of donors demonstrating IL-2 responses, DR9 / Percentage of donors demonstrating IL-4 responses, DR9 / Percentage of donors demonstrating IL-10 responses, DR9 / Percentage of donors demonstrating TNF-α responses, DR9 / Percentage of donors demonstrating IFN-γ responses, DR11 / Percentage of donors demonstrating IL-2 responses, DR11 / Percentage of donors demonstrating IL-4 responses, DR11 / Percentage of donors demonstrating IL-10 responses, DR11 / Percentage of donors demonstrating TNF-α responses, DR11 / Percentage of donors demonstrating IFN-γ responses, DR13 / Percentage of donors demonstrating IL-2 responses, DR13 / Percentage of donors demonstrating IL-4 responses, DR13 / Percentage of donors demonstrating IL-10 responses, DR13 / Percentage of donors demonstrating TNF-α responses, DR13 / Percentage of donors demonstrating IFN-γ responses, DR15 / Percentage of donors demonstrating IL-2 responses, DR15 / Percentage of donors demonstrating IL-4 responses, DR15 / Percentage of donors demonstrating IL-10 responses, DR15 / Percentage of donors demonstrating TNF-α responses, DR15: positive = Stimulation Index ≥1.5-fold above baseline, 5 µg/mL peptide; for Percentage of donors demonstrating IFN-γ responses, DR1 / Percentage of donors demonstrating IFN-γ responses, DR3 / Percentage of donors demonstrating IFN-γ responses, DR4 / Percentage of donors demonstrating IFN-γ responses, DR7 / Percentage of donors demonstrating IFN-γ responses, DR8 / Percentage of donors demonstrating IFN-γ responses, DR9 / Percentage of donors demonstrating IFN-γ responses, DR11 / Percentage of donors demonstrating IFN-γ responses, DR13 / Percentage of donors demonstrating IFN-γ responses, DR15: ICCS after 14-day co-culture; for Percentage of donors demonstrating IL-2 responses, DR1 / Percentage of donors demonstrating IL-4 responses, DR1 / Percentage of donors demonstrating IL-10 responses, DR1 / Percentage of donors demonstrating TNF-α responses, DR1 / Percentage of donors demonstrating IL-2 responses, DR3 / Percentage of donors demonstrating IL-4 responses, DR3 / Percentage of donors demonstrating IL-10 responses, DR3 / Percentage of donors demonstrating TNF-α responses, DR3 / Percentage of donors demonstrating IL-2 responses, DR4 / Percentage of donors demonstrating IL-4 responses, DR4 / Percentage of donors demonstrating IL-10 responses, DR4 / Percentage of donors demonstrating TNF-α responses, DR4 / Percentage of donors demonstrating IL-2 responses, DR7 / Percentage of donors demonstrating IL-4 responses, DR7 / Percentage of donors demonstrating IL-10 responses, DR7 / Percentage of donors demonstrating TNF-α responses, DR7 / Percentage of donors demonstrating IL-2 responses, DR8 / Percentage of donors demonstrating IL-4 responses, DR8 / Percentage of donors demonstrating IL-10 responses, DR8 / Percentage of donors demonstrating TNF-α responses, DR8 / Percentage of donors demonstrating IL-2 responses, DR9 / Percentage of donors demonstrating IL-4 responses, DR9 / Percentage of donors demonstrating IL-10 responses, DR9 / Percentage of donors demonstrating TNF-α responses, DR9 / Percentage of donors demonstrating IL-2 responses, DR11 / Percentage of donors demonstrating IL-4 responses, DR11 / Percentage of donors demonstrating IL-10 responses, DR11 / Percentage of donors demonstrating TNF-α responses, DR11 / Percentage of donors demonstrating IL-2 responses, DR13 / Percentage of donors demonstrating IL-4 responses, DR13 / Percentage of donors demonstrating IL-10 responses, DR13 / Percentage of donors demonstrating TNF-α responses, DR13 / Percentage of donors demonstrating IL-2 responses, DR15 / Percentage of donors demonstrating IL-4 responses, DR15 / Percentage of donors demonstrating IL-10 responses, DR15 / Percentage of donors demonstrating TNF-α responses, DR15: ICCS; for Percentage of donors demonstrating IFN-γ responses, DR3 / Percentage of donors demonstrating IL-2 responses, DR3 / Percentage of donors demonstrating IL-4 responses, DR3 / Percentage of donors demonstrating IL-10 responses, DR3 / Percentage of donors demonstrating TNF-α responses, DR3: DR3 donors N=6; for Percentage of donors demonstrating IFN-γ responses, DR4 / Percentage of donors demonstrating IL-2 responses, DR4 / Percentage of donors demonstrating IL-4 responses, DR4 / Percentage of donors demonstrating IL-10 responses, DR4 / Percentage of donors demonstrating TNF-α responses, DR4: DR4 donors N=10; for Percentage of donors demonstrating IFN-γ responses, DR7 / Percentage of donors demonstrating IL-2 responses, DR7 / Percentage of donors demonstrating IL-4 responses, DR7 / Percentage of donors demonstrating IL-10 responses, DR7 / Percentage of donors demonstrating TNF-α responses, DR7: DR7 donors N=4; for Percentage of donors demonstrating IFN-γ responses, DR8 / Percentage of donors demonstrating IL-2 responses, DR8 / Percentage of donors demonstrating IL-4 responses, DR8 / Percentage of donors demonstrating IL-10 responses, DR8 / Percentage of donors demonstrating TNF-α responses, DR8: DR8 donors N=4; for Percentage of donors demonstrating IFN-γ responses, DR9 / Percentage of donors demonstrating IL-2 responses, DR9 / Percentage of donors demonstrating IL-4 responses, DR9 / Percentage of donors demonstrating IL-10 responses, DR9 / Percentage of donors demonstrating TNF-α responses, DR9: DR9 donors N=4; for Percentage of donors demonstrating IFN-γ responses, DR11 / Percentage of donors demonstrating IL-2 responses, DR11 / Percentage of donors demonstrating IL-4 responses, DR11 / Percentage of donors demonstrating IL-10 responses, DR11 / Percentage of donors demonstrating TNF-α responses, DR11: DR11 donors N=4; for Percentage of donors demonstrating IFN-γ responses, DR13 / Percentage of donors demonstrating IL-2 responses, DR13 / Percentage of donors demonstrating IL-4 responses, DR13 / Percentage of donors demonstrating IL-10 responses, DR13 / Percentage of donors demonstrating TNF-α responses, DR13: DR13 donors N=7; for Percentage of donors demonstrating IFN-γ responses, DR15 / Percentage of donors demonstrating IL-2 responses, DR15 / Percentage of donors demonstrating IL-4 responses, DR15 / Percentage of donors demonstrating IL-10 responses, DR15 / Percentage of donors demonstrating TNF-α responses, DR15: DR15 donors N=7

Sequence: DQHIEQYLKTIQNSLSTEWS [ICS4]
- Percentage of donors demonstrating IFN-γ responses, DR1: 0%
- Percentage of donors demonstrating IL-2 responses, DR1: 20%
- Percentage of donors demonstrating IL-4 responses, DR1: 0%
- Percentage of donors demonstrating IL-10 responses, DR1: 0%
- Percentage of donors demonstrating TNF-α responses, DR1: 0%
- Percentage of donors demonstrating IFN-γ responses, DR3: 0%
- Percentage of donors demonstrating IL-2 responses, DR3: 0%
- Percentage of donors demonstrating IL-4 responses, DR3: 17%
- Percentage of donors demonstrating IL-10 responses, DR3: 0%
- Percentage of donors demonstrating TNF-α responses, DR3: 0%
- Percentage of donors demonstrating IFN-γ responses, DR4: 30%
- Percentage of donors demonstrating IL-2 responses, DR4: 20%
- Percentage of donors demonstrating IL-4 responses, DR4: 0%
- Percentage of donors demonstrating IL-10 responses, DR4: 10%
- Percentage of donors demonstrating TNF-α responses, DR4: 30%
- Percentage of donors demonstrating IFN-γ responses, DR7: 0%
- Percentage of donors demonstrating IL-2 responses, DR7: 0%
- Percentage of donors demonstrating IL-4 responses, DR7: 0%
- Percentage of donors demonstrating IL-10 responses, DR7: 0%
- Percentage of donors demonstrating TNF-α responses, DR7: 0%
- Percentage of donors demonstrating IFN-γ responses, DR8: 0%
- Percentage of donors demonstrating IL-2 responses, DR8: 0%
- Percentage of donors demonstrating IL-4 responses, DR8: 0%
- Percentage of donors demonstrating IL-10 responses, DR8: 0%
- Percentage of donors demonstrating TNF-α responses, DR8: 0%
- Percentage of donors demonstrating IFN-γ responses, DR9: 0%
- Percentage of donors demonstrating IL-2 responses, DR9: 0%
- Percentage of donors demonstrating IL-4 responses, DR9: 0%
- Percentage of donors demonstrating IL-10 responses, DR9: 0%
- Percentage of donors demonstrating TNF-α responses, DR9: 0%
- Percentage of donors demonstrating IFN-γ responses, DR11: 0%
- Percentage of donors demonstrating IL-2 responses, DR11: 25%
- Percentage of donors demonstrating IL-4 responses, DR11: 0%
- Percentage of donors demonstrating IL-10 responses, DR11: 0%
- Percentage of donors demonstrating TNF-α responses, DR11: 0%
- Percentage of donors demonstrating IFN-γ responses, DR13: 0%
- Percentage of donors demonstrating IL-2 responses, DR13: 0%
- Percentage of donors demonstrating IL-4 responses, DR13: 14%
- Percentage of donors demonstrating IL-10 responses, DR13: 0%
- Percentage of donors demonstrating TNF-α responses, DR13: 0%
- Percentage of donors demonstrating IFN-γ responses, DR15: 29%
- Percentage of donors demonstrating IL-2 responses, DR15: 14%
- Percentage of donors demonstrating IL-4 responses, DR15: 0%
- Percentage of donors demonstrating IL-10 responses, DR15: 0%
- Percentage of donors demonstrating TNF-α responses, DR15: 29%
- median SI, IFN-γ recall responses (median stimulation index across donors, response with peptide divided by response with no peptide): 0.74

Sequence: DQHIEKYLKTIKNSLSTEWS [ICS10]
- Percentage of donors demonstrating IFN-γ responses, DR1: 20%
- Percentage of donors demonstrating IL-2 responses, DR1: 0%
- Percentage of donors demonstrating IL-4 responses, DR1: 0%
- Percentage of donors demonstrating IL-10 responses, DR1: 0%
- Percentage of donors demonstrating TNF-α responses, DR1: 0%
- Percentage of donors demonstrating IFN-γ responses, DR3: 33%
- Percentage of donors demonstrating IL-2 responses, DR3: 17%
- Percentage of donors demonstrating IL-4 responses, DR3: 17%
- Percentage of donors demonstrating IL-10 responses, DR3: 0%
- Percentage of donors demonstrating TNF-α responses, DR3: 17%
- Percentage of donors demonstrating IFN-γ responses, DR4: 40%
- Percentage of donors demonstrating IL-2 responses, DR4: 30%
- Percentage of donors demonstrating IL-4 responses, DR4: 0%
- Percentage of donors demonstrating IL-10 responses, DR4: 10%
- Percentage of donors demonstrating TNF-α responses, DR4: 10%
- Percentage of donors demonstrating IFN-γ responses, DR7: 75%
- Percentage of donors demonstrating IL-2 responses, DR7: 25%
- Percentage of donors demonstrating IL-4 responses, DR7: 0%
- Percentage of donors demonstrating IL-10 responses, DR7: 25%
- Percentage of donors demonstrating TNF-α responses, DR7: 25%
- Percentage of donors demonstrating IFN-γ responses, DR8: 0%
- Percentage of donors demonstrating IL-2 responses, DR8: 0%
- Percentage of donors demonstrating IL-4 responses, DR8: 0%
- Percentage of donors demonstrating IL-10 responses, DR8: 0%
- Percentage of donors demonstrating TNF-α responses, DR8: 0%
- Percentage of donors demonstrating IFN-γ responses, DR9: 25%
- Percentage of donors demonstrating IL-2 responses, DR9: 25%
- Percentage of donors demonstrating IL-4 responses, DR9: 0%
- Percentage of donors demonstrating IL-10 responses, DR9: 0%
- Percentage of donors demonstrating TNF-α responses, DR9: 25%
- Percentage of donors demonstrating IFN-γ responses, DR11: 50%
- Percentage of donors demonstrating IL-2 responses, DR11: 50%
- Percentage of donors demonstrating IL-4 responses, DR11: 0%
- Percentage of donors demonstrating IL-10 responses, DR11: 0%
- Percentage of donors demonstrating TNF-α responses, DR11: 25%
- Percentage of donors demonstrating IFN-γ responses, DR13: 29%
- Percentage of donors demonstrating IL-2 responses, DR13: 14%
- Percentage of donors demonstrating IL-4 responses, DR13: 0%
- Percentage of donors demonstrating IL-10 responses, DR13: 0%
- Percentage of donors demonstrating TNF-α responses, DR13: 14%
- Percentage of donors demonstrating IFN-γ responses, DR15: 57%
- Percentage of donors demonstrating IL-2 responses, DR15: 14%
- Percentage of donors demonstrating IL-4 responses, DR15: 14%
- Percentage of donors demonstrating IL-10 responses, DR15: 0%
- Percentage of donors demonstrating TNF-α responses, DR15: 14%
